Where two headings read alike, the source gives them in different places.
Columns and labels:
[1] = system: K. pneumoniae ATCC 10031 (SEN) and K. pneumoniae ATCC 700603 (MDR); test: Frequency-of-resistance (FoR) assay, relative MIC of mutants; format: cell-based, Klebsiella pneumoniae; conditions: for MIC: Klebsiella pneumoniae
Method: (§1) The susceptibility of antibiotics to resistance development was evaluated in two strains of each bacterial species: a multidrug-resistant strain and an antibiotic-sensitive strain of Escherichia coli, Klebsiella pneumoniae, Acinetobacter baumannii, and Pseudomonas aeruginosa. To explore first-step resistance, we previously used a standard protocol for spontaneous frequency-of-resistance analysis (FoR assay) at multiple concentrations of each antibiotic[10],[28],[31]–[33]. […] For all other combinations, approximately 10^10 bacterial cells were exposed to one of each antibiotic on agar plates for two days at concentrations where the given strain is susceptible. We examined resistance levels by contrasting the minimum inhibitory concentration (MICs) of the mutated strains to the original wild-type bacterial strain (i.e., relative MIC).
(§2) To estimate the frequency of spontaneous mutations that confer resistance in a microbial population, we conducted a frequency of resistance (FoR) assay following established protocols[10],[31]–[33]. […] Prior to plating, bacteria were grown overnight in MHB medium at 37 °C and 250 RPM, then centrifuged and washed in MHB. All experiments were performed in triplicate, and plates were incubated at 37 °C for 48 hours. Total colony-forming units (CFUs) were determined by plating appropriate dilutions onto antibiotic-free MHB agar. Resistance frequencies were calculated by dividing the number of resistant colonies by the initial viable cell count. From the plates with the highest antibiotic concentration, ten colonies were selected for MIC determination and whole-genome sequencing.
(§3) A robotic liquid handling system was used to automatically prepare a 11 to 16-step serial dilution in 384-well microtiter plates (Greiner). A final concentration of 5 × 10^5 bacterial cells per mL were inoculated into each well containing 60 µL MHB medium. Bacterial cultures were incubated at 37 °C with continuous shaking (Infors shaker, 900 rpm with 3 mm throw) for 18 hours (2 replicates from each). Cell growth was monitored by measuring the optical density (OD600 values, using Biotek Synergy microplate reader). MIC was defined as the antibiotic concentration of complete growth inhibition (i.e., OD600 < 0.05). Relative MIC was calculated as follows:1 relativeMIC=MICevolved/MICancestor […]
(§4) Supplementary Figure 3. Resistance levels following the frequency of resistance assay across bacterial strains. The level of resistance was measured as the fold change in relative MIC between evolved and ancestral strains. Data are grouped by bacterial strain (A. baumannii (AB), E. coli (EC), K. pneumoniae (KP), and P. aeruginosa (PA)) and categorized as either multidrug-resistant (MDR) or sensitive (SEN). Each data point represents a laboratory evolved line, and boxplots show the median, first and third quartiles, with whiskers indicating the 5th and 95th percentiles. […]
(§5) analysis was performed using two-sided Dunn’s post-hoc test with Benjamini-Hochberg correction for multiple comparisons (**/ * indicates p < 0.01/ 0.05). For detailed information on antibiotic and bacterial species, see Supplementary Table 1. For mode of action groups, refer to Table 1. Source data are provided as a Source Data file.

[2] = system: A. baumannii ATCC 17978 (SEN) and A. baumannii ATCC BAA-1605 (MDR); test: as above; format: cell-based, Acinetobacter baumannii; conditions: for MIC: Acinetobacter baumannii
Method: as §1, §2, §3, §4, §5

[3] = system: K. pneumoniae ATCC 10031 (SEN) and K. pneumoniae ATCC 700603 (MDR); test: microbe, parasite or virus in culture; format: cell-based, Klebsiella pneumoniae; conditions: for MIC: Klebsiella pneumoniae, across three biological replicates
Method: This study focused on multiple bacterial strains, as follows. For the FoR and ALE experiments, 2 strains per species were chosen: E. coli ATCC 25922, K. pneumoniae ATCC 10031, A. baumannii ATCC 17978, and P. aeruginosa ATCC BAA-3107 as sensitive (SEN) strains, and E. coli NCTC13846, K. pneumoniae ATCC 700603, A. baumannii ATCC BAA-1605 and P. aeruginosa LESB58 as multi-drug resistant (MDR) strains. Functional metagenomic screens were performed with E. coli ATCC 25922 and K. pneumoniae ATCC 10031 strains. To determine the dose-kill properties of the different antibiotics, an E. coli strain (ATCC 25922) expressing a yellow fluorescent protein (pZS2R, YFP, CHL^R) and a red fluorescent protein (pZS2R, mCherry, CHL^R) was used.
Unless otherwise indicated, cation-adjusted Mueller-Hinton Broth 2 (MHB, Millipore) medium was used throughout the study, except for SCH79797 (SCH).
A robotic liquid handling system was used to automatically prepare a 11 to 16-step serial dilution in 384-well microtiter plates (Greiner). A final concentration of 5 × 10^5 bacterial cells per mL were inoculated into each well containing 60 µL MHB medium. Bacterial cultures were incubated at 37 °C with continuous shaking (Infors shaker, 900 rpm with 3 mm throw) for 18 hours (2 replicates from each). Cell growth was monitored by measuring the optical density (OD600 values, using Biotek Synergy microplate reader). MIC was defined as the antibiotic concentration of complete growth inhibition (i.e., OD600 < 0.05). Relative MIC was calculated as follows:1 relativeMIC=MICevolved/MICancestor

[4] = Klebsiella pneumoniae ATCC 10031 (KP-SEN), evolved line 1 versus ancestor
[5] = Klebsiella pneumoniae ATCC 10031 (KP-SEN), evolved line 2 versus ancestor
[6] = Klebsiella pneumoniae ATCC 10031 (KP-SEN), evolved line 3 versus ancestor
[7] = read-out: MIC of evolved line, Klebsiella pneumoniae ATCC 10031 (KP-SEN), evolved line 1
[8] = read-out: MIC of evolved line, Klebsiella pneumoniae ATCC 10031 (KP-SEN), evolved line 2
[9] = read-out: MIC of evolved line, Klebsiella pneumoniae ATCC 10031 (KP-SEN), evolved line 3
[10] = read-out: MIC of evolved line, Klebsiella pneumoniae ATCC 700603 (KP-MDR), evolved line 1
[11] = read-out: MIC of evolved line, Klebsiella pneumoniae ATCC 700603 (KP-MDR), evolved line 2
[12] = read-out: MIC of evolved line, Klebsiella pneumoniae ATCC 700603 (KP-MDR), evolved line 3
[13] = Acinetobacter baumannii ATCC 17978 (AB-SEN), evolved line 1 versus ancestor
[14] = Acinetobacter baumannii ATCC 17978 (AB-SEN), evolved line 2 versus ancestor
[15] = Acinetobacter baumannii ATCC 17978 (AB-SEN), evolved line 3 versus ancestor
[16] = read-out: MIC of evolved line, Acinetobacter baumannii ATCC 17978 (AB-SEN), evolved line 1
[17] = read-out: MIC of evolved line, Acinetobacter baumannii ATCC 17978 (AB-SEN), evolved line 2
[18] = read-out: MIC of evolved line, Acinetobacter baumannii ATCC 17978 (AB-SEN), evolved line 3
[19] = Klebsiella pneumoniae ATCC 10031 (KP-SEN), ancestor strain, sheet fig 2a
[20] = Klebsiella pneumoniae ATCC 700603 (KP-MDR), ancestor strain, sheet fig 2a
[21] = Klebsiella pneumoniae ATCC 10031 (KP-SEN)
[22] = Klebsiella pneumoniae ATCC 700603 (KP-MDR)
[23] = KP-SEN, Klebsiella pneumoniae ATCC 10031, ancestor strain
[24] = Klebsiella pneumoniae ATCC 10031 (KP-SEN), ancestor

Row | SMILES | Relative MIC [1, 4] | Relative MIC [1, 5] | Relative MIC [1, 6] | MIC [1, 7] | MIC [1, 8] | MIC [1, 9] | MIC [1, 10] | MIC [1, 11] | MIC [1, 12] | Relative MIC [2, 13] | Relative MIC [2, 14] | Relative MIC [2, 15] | MIC [2, 16] | MIC [2, 17] | MIC [2, 18] | MIC of ancestor [3, 19] | MIC of ancestor [3, 20] | MIC [3, 21] | MIC [3, 22] | MIC of ancestor [3, 23] | also measured
1 | CN(C)[C@@H]1C(O)=C(C(N)=O)C(=O)[C@@]2(O)C(O)=C3C(=O)c4c(O)c(NC(=O)CN5CCCC5)cc(F)c4C[C@H]3C[C@@H]12 [Eravacycline] | 16 | 16 | 16 | 0.5 µg/mL | 0.5 µg/mL | 0.5 µg/mL | 32 µg/mL | 32 µg/mL | 32 µg/mL | 8 | 16 | 8 | 0.5 µg/mL | 1 µg/mL | 0.5 µg/mL | 0.0312 µg/mL | 4 µg/mL | 0.0312 µg/mL | 4 µg/mL | – | Relative MIC ([1]; Klebsiella pneumoniae ATCC 700603 (KP-MDR), evolved line 1 versus ancestor): 8; Relative MIC ([1]; Klebsiella pneumoniae ATCC 700603 (KP-MDR), evolved line 2 versus ancestor): 8; Relative MIC ([1]; Klebsiella pneumoniae ATCC 700603 (KP-MDR), evolved line 3 versus ancestor): 8; Relative MIC ([2]; Acinetobacter baumannii ATCC BAA 1605 (AB-MDR), evolved line 1 versus ancestor): 4; Relative MIC ([2]; Acinetobacter baumannii ATCC BAA 1605 (AB-MDR), evolved line 2 versus ancestor): 4; Relative MIC ([2]; Acinetobacter baumannii ATCC BAA 1605 (AB-MDR), evolved line 3 versus ancestor): 8; MIC ([2]; read-out: MIC of evolved line, Acinetobacter baumannii ATCC BAA 1605 (AB-MDR), evolved line 1): 8 µg/mL; MIC ([2]; read-out: MIC of evolved line, Acinetobacter baumannii ATCC BAA 1605 (AB-MDR), evolved line 2): 8 µg/mL; MIC ([2]; read-out: MIC of evolved line, Acinetobacter baumannii ATCC BAA 1605 (AB-MDR), evolved line 3): 16 µg/mL; MIC of ancestor ([3]; K. pneumoniae ATCC 10031 (KP-SEN), ancestor strain): 0.0312 µg/mL; MIC of ancestor ([3]; Klebsiella pneumoniae ATCC 700603 (KP-MDR), ancestor strain): 4 µg/mL
2 | CNC(C)C1CCC(N)C(OC2C(N)CC(N)C(OC3OCC(C)(O)C(NC)C3O)C2O)O1 (centres unmarked) [Gentamicin] | 2 | 2 | 32 | 0.5 µg/mL | 0.5 µg/mL | 8 µg/mL | – | – | – | 32 | 16 | 64 | 16 µg/mL | 8 µg/mL | 32 µg/mL | 0.25 µg/mL | – | 0.25 µg/mL | 16 µg/mL | 0.25 µg/mL | –
3 | O=c1ccc2ncc(=O)n3c2n1C[C@H]3CN1CCC(NCc2cc3c(cn2)OCCC3)CC1 [Gepotidacin] | 1 | 1 | 1 | 0.0625 µg/mL | 0.0625 µg/mL | 0.0625 µg/mL | – | – | – | 16 | 4 | 16 | – | 8 µg/mL | – | 0.125 µg/mL | – | 0.125 µg/mL | 16 µg/mL | 0.125 µg/mL | –
4 | COc1c(N2C[C@@H]3CCCN[C@@H]3C2)c(F)cc2c(=O)c(C(=O)O)cn(C3CC3)c12 [Moxifloxacin] | – | – | – | 0.25 µg/mL | – | – | 4 µg/mL | 4 µg/mL | 4 µg/mL | – | – | – | 0.5 µg/mL | 2 µg/mL | 1 µg/mL | 0.00781 µg/mL | 1 µg/mL | 0.00781 µg/mL | 1 µg/mL | – | MIC of ancestor [3, 24]: 0.00781 µg/mL; MIC of ancestor ([3]; Klebsiella pneumoniae ATCC 700603 (KP-MDR), ancestor): 1 µg/mL
5 | CN(C)c1cc(CNCC(C)(C)C)c(O)c2c1C[C@H]1C[C@H]3[C@H](N(C)C)C(O)=C(C(N)=O)C(=O)[C@@]3(O)C(O)=C1C2=O [Omadacycline] | 32 | 16 | 16 | 32 µg/mL | 16 µg/mL | 16 µg/mL | – | – | – | 8 | 8 | 8 | 4 µg/mL | 4 µg/mL | 4 µg/mL | 1 µg/mL | – | 1 µg/mL | > 32 µg/mL | – | MIC of ancestor [3, 24]: 1 µg/mL
